One series deals with hApoA1 transgenic mouse. Description: Lipid concentrations in the hApoA1 transgenic mouse. The note with it: 30 mg/kg/day, oral gavage. The format is in vivo. The protocol: B. Effect of PPAR Modulators on Lipid and Human Apoprotein A1 Concentrations in the hApoA1 Transgenic Mouse
Mice, transgenic for human apoA1, were purchased from Jackson laboratories. All animals were allowed normal chow (Ralston-Purina) and water ad libitum in temperature controlled rooms, under a 12-h light, 12-h dark cycle beginning with lights on at 6 AM. During the treatment phase of the study the mice were dosed daily between 6 and 9 AM by oral gavage using a suspension vehicle of 1.5% carboxymethylcellulose plus 0.2 percent Tween-20 (CMC/Tween) containing the specified compounds. Control animals received vehicle alone. Vehicle volume represented 0.25 percent of body weight. Under anesthesia, tail blood was obtained weekly in the morning at the indicated days of study. At termination, tissue samples (liver, intestine, fat, and muscle) were taken to study effects on genes effecting lipid metabolism. Each of the compounds of the present invention that were tested effected a significant increase in HDL over the values observed for the control animals. […] For instance, Example 4 raised HDL-c 97% and lowered triglycerides 65% relative to the control population, Example 6 raised HDL-c 24% and lowered triglycerides 59% relative to the control population, and Example 3 raised HDL-c 9% and lowered triglycerides 70% relative to the control population.

In a further series the target is T1, hPPARα (Homo sapiens, UniProt Q07869).
T1 sequence (Q07869 200-468 limits assumed): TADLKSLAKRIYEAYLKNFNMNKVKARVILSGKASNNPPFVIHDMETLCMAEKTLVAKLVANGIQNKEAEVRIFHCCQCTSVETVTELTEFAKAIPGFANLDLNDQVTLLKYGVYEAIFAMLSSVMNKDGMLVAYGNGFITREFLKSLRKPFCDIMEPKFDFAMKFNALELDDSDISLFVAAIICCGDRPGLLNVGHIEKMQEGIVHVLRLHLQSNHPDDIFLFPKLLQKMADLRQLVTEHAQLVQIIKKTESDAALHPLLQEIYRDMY
The experiment in a line: Transient transfection assay in HepG2 cells, Gal4-hPPARα chimeric receptor, luciferase reporter. The format is cell-based. The note with it: Hep G2-hAlpha EC50, 24 hours incubation; read-out: EC50α nM (Group). The gist of the method: (§1)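 HepG2 cells were transiently co-transfected with Gal4-hPPARα or Gal4-hPPARβ chimeras, a UAS-E1B luciferase reporter and a β-gal normalisation plasmid. After re-plating, cells were treated with compound at 50 pM–50 μM for 24 h at 37°C. EC50 values were derived from luciferase read-out normalised to β-gal.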
(In general: A reporter such as luciferase makes a cellular process visible.)

Another series concerns the target T2, hPPARβ (Homo sapiens, UniProt Q03181).
T2 sequence (Q03181 171-441 limits assumed): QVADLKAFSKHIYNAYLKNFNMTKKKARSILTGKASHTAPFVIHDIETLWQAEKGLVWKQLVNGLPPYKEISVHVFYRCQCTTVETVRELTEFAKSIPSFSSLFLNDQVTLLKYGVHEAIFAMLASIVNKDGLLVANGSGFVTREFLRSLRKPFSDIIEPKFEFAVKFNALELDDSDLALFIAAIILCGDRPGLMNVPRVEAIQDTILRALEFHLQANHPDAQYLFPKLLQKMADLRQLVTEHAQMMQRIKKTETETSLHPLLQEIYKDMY
The experiment in a line: Transient transfection assay in HepG2 cells, Gal4-hPPARβ chimeric receptor, luciferase reporter. Format: cell-based. The note with it: Hep G2-hBeta EC50, 24 hours incubation; read-out: EC50β nM (Group). The gist of the method: as §1

Series [1] concerns insulin resistant cynomolgus monkeys. Description: Eight-week rising-dose treatment of insulin resistant cynomolgus monkeys. The note with it: for Leptin (plasma, ELISA): Insulin Resistant Treated; for Insulin Resistant Monkey Mean Body Weight: treated group (Txt). The format is in vivo. The protocol: (§2) C. Effect of Compounds of the Invention on Insulin Resistant or Diabetic Cynomolgus Monkeys
Cynomolgus monkeys that were either insulin resistant or diabetic (type II) were treated for eight weeks with [5-Methoxy-2-methyl-4-(4′-trifluoromethyl-biphenyl-4-ylmethylsulfanyl)-phenoxy]-acetic acid in a rising dose fashion (0.1 to 1 mg/kg). Plasma was sampled bi-weekly and analyzed for glycemics and leptin. Body weight was also measured at various time points across the study. The diabetic monkey mean body weight data is presented in Table 2 and the insulin resistant monkey mean body weight data is presented in Table 3. […]

The test system of series [2] is diabetic cynomolgus monkeys. Description: Eight-week rising-dose treatment of diabetic (type II) cynomolgus monkeys. Format: in vivo. The note with it: for Exogenous Insulin Requirement / Leptin (plasma, ELISA): Diabetic Treated; for Diabetic Monkey Mean Body Weight: treated group (Txt). The protocol:
as §2
Cynomolgus monkeys that were either insulin resistant or diabetic (type II) were treated for eight weeks with [5-Methoxy-2-methyl-4-(4′-trifluoromethyl-biphenyl-4-ylmethylsulfanyl)-phenoxy]-acetic acid in a rising dose fashion (0.1 to 1 mg/kg). Plasma was sampled bi-weekly and analyzed for glycemics and leptin. Body weight was also measured at various time points across the study. The diabetic monkey mean body weight data is presented in Table 2 and the insulin resistant monkey mean body weight data is presented in Table 3.
The amount of exogenous insulin the diabetic monkeys received to maintain proper glucose levels, the exogenous insulin requirement, is also presented in Table 4 as baseline values vs. 8-week treatment. […] A reduction in exogenous insulin requirements is a measure of improved insulin sensitivity and glucose control.
On the technique in general: In an ELISA, binding on a coated surface is turned into a signal by an enzyme label.

[3] abbreviates: Post-Treatment (8-week treatment).
Setting [4] is: 2 wk, rising dose 0.1 to 1 mg/kg.
The mark [5] stands for this setting: 8 wk, rising dose 0.1 to 1 mg/kg.

Structures are written as SMILES. Where only a bound is given, the exact number is not on record here.

In the case of `Cc1cc(SCc2ccc(-c3ccc(C(F)(F)F)cc3)cc2)ccc1OCC(=O)O` [Example 3, [2-Methyl-4-(4′-trifluoromethyl-biphenyl-4-ylmethylsulfanyl)-phenoxy]-acetic acid], the melting point was 140 to 141 °C. For the same compound, in the series on hApoA1 transgenic mouse, the “lowered triglycerides relative to the control population” value was 70% and the “raised HDL-c relative to the control population” value worked out at 9%. For the same compound, on hPPARα, the EC50 lay in the range of 2000 to 5000 nM. The EC50 on hPPARβ is less than 300 nM.
On the same counts, the results for `COc1cc(OCC(=O)O)c(C)cc1SCc1ccc(-c2ccc(C(F)(F)F)cc2)cc1` [Example 4, [5-Methoxy-2-methyl-4-(4′-trifluoromethyl-biphenyl-4-ylmethylsulfanyl)-phenoxy]-acetic acid] are 170 to 171 °C, 65%, 97%, less than 300 nM and less than 300 nM.
Take `Cc1cc(SCc2ccc(-c3ccc(Cl)c(C(F)(F)F)c3)cc2)ccc1OCC(=O)O` [Example 6, [4-(4′-Chloro-3′-trifluoromethyl-biphenyl-4-ylmethylsulfanyl)-2-methyl-phenoxy]-acetic acid]: in the series with hApoA1 transgenic mouse, the “lowered triglycerides relative to the control population” value was found to be 59% and the “raised HDL-c relative to the control population” value is listed as 24%.
`COc1cc(OCC(=O)O)c(C)cc1SCc1ccc(-c2ccc(C(F)(F)F)cc2)cc1` [[5-Methoxy-2-methyl-4-(4′-trifluoromethyl-biphenyl-4-ylmethylsulfanyl)-phenoxy]-acetic acid]: the “Leptin (plasma, ELISA)” value amounted to 5.73 ± 2.14 ng/mL in series [1] (setting [3]), 7.33 ± 1.16 ng/mL in series [1] (Pre-Treatment (baseline)), 10.89 ± 2.7 ng/mL in series [2] (setting [3]) and 7.22 ± 0.93 ng/mL in series [2] (Pre-Treatment (baseline)). Besides, the “effect on plasma leptin values” is recorded as “lesser increase in plasma leptin values” in series [1] (insulin resistant obese cynomolgus monkeys, treated vs control, baseline vs 8 weeks) and “lesser increase in plasma leptin values” in series [2] (diabetic obese cynomolgus monkeys, treated vs control, baseline vs 8 weeks). Besides, the Insulin Resistant Monkey Mean Body Weight was found to be 5.26 kg in series [1] (setting [4]); 5.04 kg in series [1] (4 wk, rising dose 0.1 to 1 mg/kg); 4.91 kg in series [1] (6 wk, rising dose 0.1 to 1 mg/kg); 4.71 kg in series [1] (setting [5]); 5.29 kg in series [1] (Mean Baseline); 5.32 kg in series [1] (−4 wk, before treatment). In addition, the Insulin Resistant Monkey Mean Body Weight in series [1] (−7 wk, before treatment) worked out at 5.25 kg. Moreover, the “Exogenous Insulin Requirement” value is recorded as 18 ± 4 u/day in series [2] (setting [3]) and 66 ± 16 u/day in series [2] (Pre-Treatment (baseline)). Besides, the Diabetic Monkey Mean Body Weight stood at 8.75 kg in series [2] (setting [4]); 8.37 kg in series [2] (5 wk, rising dose 0.1 to 1 mg/kg); 8.08 kg in series [2] (7 wk, rising dose 0.1 to 1 mg/kg); 7.8 kg in series [2] (setting [5]); 8.87 kg in series [2] (Mean Baseline); 8.91 kg in series [2] (−4 wk, before treatment). The same compound showed a Diabetic Monkey Mean Body Weight in series [2] (−7 wk, before treatment) of 8.84 kg.

For orientation: melting point means the temperature of the solid-liquid transition.

Source of the values: patent US6964983B2, “Compounds that modulate PPAR activity and methods for their preparation” (Warner-Lambert Company, LLC, priority 2002, dated 2005).
